The structures appear in SMILES notation. Where a name gives a salt, the structure may show the parent alone.

The first test relates to pentagastrin stimulated gastric acid secretion. Kind of test: Rat lumen perfused stomach (pentagastrin stimulated gastric acid secretion). The format is in vivo. As to conditions: iv, i.v. administration, 10 μmole/kg, read-out: Rat G.S. % inhibition @ 10 μmole/kg. The text has this:
Using a modification of the procedure described by Ghosh and Schild (Br. J. Pharmacology, 13, 54, 1958), the compounds of the following Examples were found on i.v. administration at a concentration of 10 μmole/kg to cause an inhibition of pentagastrin stimulated gastric acid secretion as indicated in the following Table.
Consider `COc1cccc2c(Nc3ccccc3C)nc(N)nc12` [Example 1, 2-amino-8-methoxy-4-(2-methylphenylamino)quinazoline], for which the inhibition in vivo at 10 µmol/kg came to 60%.
`COc1cccc2c(NCc3ccccc3)nc(N)nc12` [Example 2, 2-amino-8-methoxy-4-benzylaminoquinazoline]: the inhibition in vivo at 10 µmol/kg is 25%.
With `COc1ccc(Nc2nc(N)nc3c(OC)cccc23)c(C)c1` [Example 3, 2-amino-8-methoxy-4-(2-methyl-4-methoxyphenylamino)quinazoline], the inhibition in vivo at 10 µmol/kg amounted to 16%.
With `COc1cccc2c(NCc3ccccc3C)nc(N)nc12` [Example 4, 2-amino-8-methoxy-4-(2-methylbenzylamino)quinazoline], the inhibition in vivo at 10 µmol/kg is 37%.
The same measure, in the same setting: the value for `COc1cccc2c(Nc3ccccc3C)nc(N(C)C)nc12` [Example 5, 2-dimethylamino-8-methoxy-4-(2-methylphenylamino)quinazoline] was 37%.
Turning to `Cc1ccccc1Nc1nc(N)nc2c(C)cccc12` [Example 6, 2-amino-8-methyl-4-(2-methylphenylamino)quinazoline], the inhibition in vivo at 10 µmol/kg came to 48%.
Take `Cc1ccccc1Nc1nc(N)nc2ccccc12` [Example 7, 2-amino-4-(2-methylphenylamino)quinazoline]: the inhibition in vivo at 10 µmol/kg is 20%.
The same measure, in the same setting: the value for `Cc1ccccc1Nc1nc(N2CCCC2)nc2ccccc12` [Example 8, 2-pyrrolidino-4-(2-methylphenylamino)quinazoline] was 17%.
Still for that read-out and setting: the figure for `CCc1ccc2nc(N)nc(Nc3ccccc3C)c2c1` [Example 11, 2-amino-4-(2-methylphenylamino)-6-ethylquinazoline] is 28%; for `CNc1nc(Nc2ccccc2C)c2cccc(OC)c2n1` [Example 13, 2-methylamino-8-methoxy-4-(2-methylphenylamino)quinazoline] it is 20%; for `COc1cccc2c(Nc3ccccc3C)nc(N3CCCC3)nc12` [Example 15, 2-pyrrolidino-8-methoxy-4-(2-methylphenylamino)quinazoline] it is 31%.
The same measure, in the same setting: the figure for `Cc1ccccc1Nc1nc(NCCc2ccccc2)nc2ccccc12` [Example 16, 2-phenylethylamino-4-(2-methylphenylamino)quinazoline] is 31%.
`COc1ccccc1Nc1nc(N)nc2c(OC)cccc12` [Example 18, 2-amino-8-methoxy-4-(2-methoxyphenylamino)quinazoline]: the inhibition in vivo at 10 µmol/kg came to 12%.
Turning to `CN(c1ccccc1)c1nc(N(C)c2ccccc2)c2ccccc2n1` [Example 20, 2,4-Bis-(N-methylphenylamino)quinazoline hydrochloride], the inhibition in vivo at 10 µmol/kg worked out at 72%.
With `COc1cccc2c(Nc3ccccc3C)nc(N(C)c3ccccc3)nc12` [Example 21, 2-(N-methylphenylamino)-4-(2-methylphenylamino)-8-methoxyquinazoline], the inhibition in vivo at 10 µmol/kg was found to be 37%.
For the molecule `Cc1ccccc1Nc1nc(N(C)c2ccccc2)nc2ccccc12` [Example 22, 2-(N-methylphenylamino)-4-(2-methylphenylamino)quinazoline hydrochloride], the inhibition in vivo at 10 µmol/kg is 27%.
The same measure, in the same setting: the value for `COc1cccc2c(N(C)c3ccccc3)nc(Nc3ccccc3C)nc12` [Example 24, 4-(N-methylphenylamino)-2-(2-methylphenylamino)-8-methoxyquinazoline] was 97%.
Still for that read-out and setting: the figure for `Cc1ccccc1CNc1nc(N)nc2ccccc12` [Example 25, 2-amino-4-(2-methylbenzylamino)quinazoline] is 24%; for `Cc1ccccc1Nc1nc(N(C)c2ccccc2)c2ccccc2n1` [Example 26, 2-(2-methylphenylamino)-4-(N-methylphenylamino)quinazoline hydrochloride] it is 79%; for `CN(c1ccccc1)c1nc(Nc2ccccc2)nc2ccccc12` [Example 27, 2-phenylamino-4-(N-methylphenylamino)quinazoline hydrochloride] it is 71%.
The same measure, in the same setting: the figure for `COc1cccc2c(N(C)c3ccccc3)nc(N)nc12` [Example 29, 2-amino-4-(N-methylphenylamino)-8-methoxyquinazoline hydrochloride] is 13%; for `Cc1cc(O)ccc1Nc1nc(N(C)c2ccccc2)c2ccccc2n1` [Example 30, 2-(4-hydroxy-2-methylphenyl)amino1-4-(N-methylphenylamino) quinazoline hydrochloride] it is 23%.
For the molecule `Cc1ccccc1CNc1nc(N(C)c2ccccc2)c2ccccc2n1` [Example 31, 2-(2-methvlbenzylamino)-4-(N-methylphenylamino)quinazoline hydrochloride], the inhibition in vivo at 10 µmol/kg was 8%.
Take `Cc1cc(F)ccc1Nc1nc(N(C)c2ccccc2)c2ccccc2n1` [Example 32, 2-(2-methyl-4-fluorophenyl)amino]-4-(N-methylphenylamino)quinazoline hydrochloride]: the inhibition in vivo at 10 µmol/kg turned out to be 96%.

The subject of the next test is isolated rat osteoclasts. The test can be described thus: Bone resorption by isolated rat osteoclasts on cortical bone slices. The format is cell-based. As to conditions: Osteoclast, 10 μM, 18 hours, control = 100 ± 27, Mean ± SEM, n = 12. The method, then:
Bone resorption was measured by the actions of isolated rat osteoclasts on cortical bone slices (Zaidi et al Quarterly Journal of Experimental Physiology 1988 73:471-485). Newborn Wistar rats were killed by decapitation and their femora and tibiae removed. Osteoclasts were mechanically disaggregated by curetting the bones into medium followed by agitation with a pipette. Osteoclasts were separated from other cells by sedimentation onto bone slices (15 minutes, 37°) after which the slices were removed and gently washed. The bone slices were then incubated in the presence of test compounds (37°, 10% humidified CO2, 18 hours) and fixed with glutaraldehyde. The degree of bone resorption was then assessed by the area of erosions produced by the osteoclasts using scanning electron microscopy. Data were meaned from measurements of 6 bone slices in each of two independent experiments.
Test compounds were dissolved in ethanol which was also added to control incubations (1%) in the absence of compound.
As for `Cc1cc(F)ccc1Nc1nc(N(C)c2ccccc2)c2cc(O)ccc2n1` [Example 56, 4-(N-methylphenylamino)-2-[(2-methyl-4-fluorophenyl)amino]-6-hydroxyquinazoline hydrochloride], the activity at 10 µM is 7 ± 4%.

Staying with this test, now noted: Osteoclast, 100 μM, 18 hours, control = 100 ± 27, Mean ± SEM, n = 12.
Molecule `Cc1cc(F)ccc1Nc1nc(N(C)c2ccccc2)c2cc(O)ccc2n1` [Example 56, 4-(N-methylphenylamino)-2-[(2-methyl-4-fluorophenyl)amino]-6-hydroxyquinazoline hydrochloride] came in with an activity at 100 µM of 7%.

The values are drawn from US5064833A, “Substituted quinazoline derivatives for use in gastrointestinal diseases” (Smithkline Beecham Intercredit B.V., priority 1989, dated 1991).
